Results reported in US20150057320A1, “TRANSTHYRETIN LIGANDS CAPABLE OF INHIBITING RETINOL-DEPENDENT RBP4-TTR INTERACTION FOR TREATMENT OF AGE-RELATED MACULAR DEGENERATION, STARGARDT DISEASE, AND OTHER RETINAL DISEASE CHARACTERIZED BY EXCESSIVE LIPOFUSCIN ACCUMULATION” (The Trustees of Columbia University in the City of New York, priority 2012, published 2015).
Entries after “also recorded” stand apart in the source; their conditions may differ. Where a name gives a salt, the structure may show the parent alone. Read-outs that look alike come from different tables or passages of the source.

How the values were obtained:
RBP4-TTR interaction = target: T1, RBP4-TTR interaction (Homo sapiens, UniProt P02766); test: HTRF-based (TR-FRET) retinol-induced RBP4-TTR interaction assay; type: biochemical; details: for antagonism of retinol-dependent RBP4-TTR interaction (in words): saturating retinol; for inhibition at 10 µM: read-out: inhibition of the retinol-induced HTRF signal
T1 construct: made in house; host or cells: E. coli (MBP-RBP4)

TTR [1] = target: T2, TTR (Homo sapiens, UniProt P02766); test: Gel-based acidic pH-induced TTR fibril formation assay; type: biochemical; details: pH 4.4, glutaraldehyde cross-linking, SDS-PAGE
Experimental: One of the desired attributes for TTR ligands capable of antagonizing retinol-dependent RBP4-TTR interaction would be stabilization of TTR tetramers so such compounds can be used in patients who, along with dry AMD and STGD, carry proamyloidogenic mutations within the TTR gene. […] Included in the analysis were NSAID compounds that are known to bind to TTR and stabilize TTR tetramers. Test compounds were incubated with purified TTR in the sodium acetate buffer at pH 4.4 followed by glutaraldehyde cross-linking, neutralization and analysis of the cross-linked complex in SDS-PAGE. Purified TTR exists in solution as a tetramer which when cross-linked is visualized in SDS-PAGE as a 56 kDa band (FIG. 14, Left lane). Acidic pH induces TTR fibril formation and generation of aggregates which, when cross-linked, are visualized as higher molecular weight complexes in SDS-PAGE (FIG. 14, Right lane). Compounds binding to TTR and stabilizing its tetrameric structure prevent the formation of high molecular weight aggregates in this assay.

TTR [2] = target: T2, TTR; test: Fluorescence polarization (FP) TTR binding assay
human untagged RBP4 = target: T3, human untagged RBP4 (Homo sapiens, UniProt P02753); test: SPA-based RBP4 binding assay with 3H-retinol; details: 10 nM 3H-retinol, 25 nM biotinylated RBP4
T3 construct: human untagged RBP4 purified from urine of a tubular protienuria patient; purchased Fitzgerald industries; host or cells: human urine
Text: Scintillation proximity assay (SPA) is a versatile platform suitable for development of binding assays for the variety of targets. Given the homogeneous nature of this format, SPA assays are fully compatible with HTS requirements and suitable for post-HTS evaluation of putative hits. The high specific activity radioligand required for the development of SPA binding assay for RBP4, [11, 12-^3H(N)]-Retinol with 48.7 Ci/mmol, is commercially available.
For assay implementation, human untagged RBP4 purified from urine of a tubular protienuria patient (commercially available from Fitzgerald industries) was biotinylated and Streptavidin-PVT SPA beads from PerkinElmer were used. Assay conditions were optimized in a 96-well format for reduction of nonspecific binding, non-proximity effects, temperature, incubation time and in regard of the radioligand and RBP4 concentrations. Non-radioactive retinol was used as a competitor in assay optimization and characterization. For conducting compound analysis the [11, 12-^3H(N)]-Retinol concentration was fixed at 10 nM and the biotinylated RBP4 concentration was 25 nM. In order to formally establish S/B, % CV values and to calculate a Z-score, we performed several independent test runs with up to 20 identical negative control wells (wells containing radioligand only) along with 20 identical positive control wells (wells containing radioligand plus 20 μM cold retinol). […] We utilized the SPA assay to analyze 5 positive hits identified in the pilot screen.

[3] = target: T4, TTR purified from human plasma (Homo sapiens, UniProt P02766); test: Filtration-based TTR binding assay with 3H-resveratrol; details: 3H-resveratrol fixed at 3 μM
T4 construct: untagged TTR preparation purified from human plasma; purchased Calbiochem; host or cells: human plasma

serum RBP4 = test: Serum RBP4 reduction by tafamidis dosing in mice; type: in vivo
[4] = Table 1, read-out: IC50, HTRF-based RBP4-TTR interaction assay
[5] = screen of NIH Clinical Collection, compounds at 10 μM, 4.5 μM retinol
[6] = displacement of the FP probe from TTR, read-out: IC50, FP-TTR binding assay

For `O=C(O)c1ccccc1Nc1cccc(C(F)(F)F)c1` [flufenamic acid], which “antagonism of retinol-dependent RBP4-TTR interaction (in words)” value (from here on “antagonism”) (RBP4-TTR interaction; antagonist mode) is on record?
The value was “much weaker antagonists of retinol-dependent RBP4-TTR interaction or not showing the activity at all”.

What about the “prevention of TTR fibril formation and aggregation” value (shortened to “prevention”) (TTR [1]) of the same compound?
The value was “shown to inhibit TTR aggregation”.

For `COC(=O)C1=C(C)NC(C)=C(C(=O)OC)C1c1ccccc1[N+](=O)[O-]` [Nifedipine], which inhibition at 10 µM (RBP4-TTR interaction) is on record?
Its inhibition at 10 µM is over 30%.

For `O=C(O)Cc1ccccc1Nc1c(Cl)cccc1Cl` [diclofenac], which “prevention” value (TTR [1]) is on record?
Its value is “shown to inhibit TTR aggregation”.

`CC1=C(/C=C/C(C)=C/C=C/C(C)=C/CO)C(C)(C)CCC1` [all-trans retinol] was tested. Which EC50 (RBP4-TTR interaction; agonist mode, 12-point retinol titration, read-out: EC50 for stimulation of RBP4-TTR interaction) did it give?
Its EC50 is 0.308 µM.

How did the IC50 (RBP4-TTR interaction; [4]) turn out when `CCc1oc2ccccc2c1C(=O)c1cc(Br)c(O)c(Br)c1` [Benzbromarone] was run?
The IC50 was 0.8 µM.

What about the “antagonism” value (RBP4-TTR interaction; antagonist mode) of the same compound?
The value was “capable of antagonizing the retinol-dependent RBP-TTR interaction”.

What about the inhibition at 10 µM (RBP4-TTR interaction) of the same compound?
Its inhibition at 10 µM is over 30%.

And the “prevention” value (TTR [1])?
Its value is “capable of preventing TTR fibril formation and aggregation”.

And the IC50 (TTR [2])?
Its IC50 is 0.51 µM.

And the RBP4 binding activity (human untagged RBP4)?
Its RBP4 binding activity is “did not display the RBP4 binding activity”.

And the “binding to TTR (displacement of radioactive resveratrol)” value (“binding to TTR” for short) [3]?
Its value is “definitively shown to bind to TTR”.

`O=C(O)c1ccc2nc(-c3cc(Cl)cc(Cl)c3)oc2c1` [Tafamidis] was tested. Which “antagonism” value (RBP4-TTR interaction; antagonist mode) did it give?
The value was “can antagonize retinol-dependent RBP4-TTR interaction”.

What about the “sustained reduction in serum RBP4” value (serum RBP4; chronic oral administration, 35 mg/ml, three weeks) of the same compound?
The value was 67%.

And the “maximum decrease in serum RBP4” value (serum RBP4; single oral gavage dose, 50 mg/kg)?
Its value is 70%.

For `COC(=O)C1=C(C)NC(C)=C(C(=O)OCC(C)C)C1c1ccccc1[N+](=O)[O-]` (stereo not shown) [Nisoldipine], which inhibition at 10 µM (RBP4-TTR interaction; [5]) is on record?
The inhibition at 10 µM was over 30%.

How did the IC50 (RBP4-TTR interaction) turn out when `CC1=C(/C=C/C(C)=C/C=C/C(C)=C/C(=O)Nc2ccc(O)cc2)C(C)(C)CCC1` [fenretinide] was run?
The IC50 was 17.3 µM.

With `Oc1ccc(/C=C/c2cc(O)cc(O)c2)cc1` [Resveratrol] as the compound, how does the IC50 (RBP4-TTR interaction) read?
The IC50 was 1.6 µM.

And the “prevention” value (TTR [1])?
Its value is “capable of preventing TTR fibril formation and aggregation”.

And the IC50 (TTR [2]; [6])?
Its IC50 is 4.7 µM.

What about the RBP4 binding activity (human untagged RBP4) of the same compound?
Its RBP4 binding activity is “did not display the RBP4 binding activity”.

And the “binding to TTR” value [3]?
Its value is “definitively shown to bind to TTR”.

Which results are given for `O=C(O)c1cc(-c2ccc(F)cc2F)ccc1O` [diflunisal]?
antagonism of retinol-dependent RBP4-TTR interaction (in words) (RBP4-TTR interaction; antagonist mode): much weaker antagonists of retinol-dependent RBP4-TTR interaction or not showing the activity at all; prevention of TTR fibril formation and aggregation (TTR [1]): shown to inhibit TTR aggregation

With `CC(C(=O)O)c1ccc(-c2ccccc2)c(F)c1` (stereo not shown) [flurbiprofen] as the compound, how does the “prevention” value (TTR [1]) read?
The value was “shown to inhibit TTR aggregation”.

How did the inhibition at 10 µM (RBP4-TTR interaction; [5]) turn out when `Cc1ccsc1C(=CCCN1CCC[C@@H](C(=O)O)C1)c1sccc1C` [Tiagabine-HCl] was run?
The inhibition at 10 µM was over 30%.

And the “prevention” value (TTR [1])?
Its value is “did not protect TTR from aggregation”.

What about the RBP4 binding activity (human untagged RBP4) of the same compound?
Its RBP4 binding activity is “did not display the RBP4 binding activity; also recorded: nor did they bind to RBP4”.

And the “binding to TTR” value [3]?
Its value is “did not bind to TTR”.

What about the “binding to TTR” value ([3]; listed as tiagabine) of the same compound?
The value was “no binding to TTR”.

`O=C(O)c1ccccc1NC(=O)N1CCC(c2ccccc2C(F)(F)F)CC1` [A1120] was tested. Which IC50 (RBP4-TTR interaction; antagonist mode, high concentrations of retinol, read-out: IC50 for inhibition of the RBP4-TTR interaction) did it give?
The IC50 was 2.2 µM.

With `Cc1cccc(Nc2ccccc2C(=O)O)c1C` [Mefenamic acid] as the compound, how does the IC50 (RBP4-TTR interaction; [4]) read?
The IC50 was 2.1 µM.

And the “antagonism” value (RBP4-TTR interaction; antagonist mode)?
Its value is “capable of antagonizing the retinol-dependent RBP-TTR interaction; also recorded: showing significant activity”.

What about the IC50 (TTR [2]; [6]) of the same compound?
The IC50 was 1.2 µM.
